Laboratory results: patent US20100324067A1, “TETRACYCLIC DIPYRANO-COUMARIN COMPOUNDS WITH ANTI-HIV AND ANTI-MYCOBACTERIUM TUBERCULOSIS ACTIVITIES” (priority 2007, published 2010)
Converted amounts (≈) assume the structure as drawn. Read-outs that look alike come from different tables or passages of the source.

Columns and labels:
[1] = tested on: CEM-SS cells (human T-lymphoblastic cells); conditions: cited from earlier work
host cells of the virus = assay: Cell toxicity to the host cells of the virus at 10 μM; type: cell-based
HIV-1 [2] = conditions: cited from earlier work
H37Rv strain = H37Rv strain growth; Bioorg. Med. Chem., 2004, 1199-1207; cited from earlier work
HIV-1 [3] = assay: Inhibitory activity against HIV-1 (literature method, Chen et al. J Virol 1997); conditions: Human immunodeficiency virus 1, read-out: Anti-HIV (%, 1.0 μM)
[4] = tested on: Mycobacterium tuberculosis H37Rv (ATCC 27294); assay: Microplate Alamar Blue Assay (MABA) in BACTEC 12B medium (TAACF screen); type: cell-based

Structure (SMILES) | CC50 [1] [µM] | Cell toxicity (10 μM), number printed before the class symbol (host cells of the virus; 10 μM) [%] | therapeutic index (TI) (HIV-1 [2]; J. MED. CHEM. 1996, 39, 1303) | EC50 (HIV-1 [2]; anti-HIV-1, literature, read-out: EC50) [µM] | EC50 (HIV-1 [2]; from J. Med. Chem. 1996, 39(6):1303-13, unit inferred, read-out: EC50 (TI)) [µM] | activity against TIBO of pyridinone-resistant A17 strains (HIV-1 [2]; resistant strain A17) | activity against AZT-1-resistant strains (G-9106) of HIV-1 (HIV-1 [2]; resistant strain G-9106) | MIC90 (H37Rv strain) [mg/L] | inhibition at 1 µM (HIV-1 [3]) [%] | melting point [°C] | Cell toxicity (10 μM) (host cells of the virus) | IC50 [4] [mg/L] | MIC90 ([4]; MABA, H37Rv, read-out: MIC90) [mg/L] | MIC90 ([4]; read-out: anti-TB active compound (MIC90 less than 10 μg/mL), classification) [mg/L]
CCCc1cc(=O)oc2c3c(c4c(c12)OC(C)(C)C=C4)O[C@H](C)[C@@H](C)[C@@H]3O [(+)-Calanolide A, (+)-calanolide A] | 20 | 6 | 16-279 | 0.1 | 0.1 to 0.2 | active | active | 3.13 (≈ 8.45 µM) | 86 |  |  |  |  | 
CCCc1cc(=O)oc2c3c(c4c(c12)OC(CCC)C=C4)OC(C)CC3=O (stereo not drawn) [Example 34, 10-methyl-4,6-di(-n-propyl)-2H,6H,12H-benzo[1,2-b:3,4-b′:5,6-b″]-tripyranyl-2,12-dione] |  |  |  |  |  |  |  |  | 54.1 | 158 to 160 | − | 2.88 (≈ 7.8 µM) | 3.18 (≈ 8.64 µM) | < 10
